Experimental data from ChEMBL document CHEMBL1201862, “PubChem BioAssay data set” (2004).
Each block holds one compound with its values, some of them ahead of it. The source made the active and inactive calls.

Key:
[1] = cytotoxicity toward DRD oncogenic fibroblasts, dose response, cell-based, non-viral oncogenic, luminescence (AID 1934); format: functional; conditions: Homo sapiens
BJ [2] = assay: cytotoxicity toward BJ-TERT-LT-ST fibroblasts, dose response, cell-based, RAS-independent, luminescence (AID 1935); format: functional; conditions: Homo sapiens;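 further: BJ fibroblasts immortalized with TERT plus LT and ST oncogenes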
[3] = LGR2 antagonists, dose response, cell-based, HEK293, CRE-luciferase reporter, cherry pick, set 2 (AID 743343); format: functional;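 further: transfected cells were stimulated with diluted bursicon conditioned medium after compound addition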
[4] = MC4R antagonists, dose response, counter-screen for LGR2 antagonist project, cell-based, plate reader, cherry pick (AID 743444); format: functional;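 further: transfected HEK 293 cells stimulated with alpha-MSH peptide; potency of inhibitors of the alpha-MSH evoked signal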
[5] = HepG2 cell cytotoxicity, dose response, cytotoxicity control, plate reader, cherry-pick, antagonist series (AID 743416); format: functional, cell-based
BJ [6] = assay: cytotoxicity toward BJ-TERT fibroblasts, dose response, cell-based, RAS-independent, luminescence (AID 1933); format: functional; conditions: Homo sapiens
BJ [7] = assay: cells; format: functional, cell-based; conditions: Homo sapiens
[8] = HEK293 cell cytotoxicity, dose response, cytotoxicity control, plate reader, cherry-picked samples (AID 743446); format: functional, cell-based
[9] = A549 cell cytotoxicity, dose response, cytotoxicity control, plate reader, cherry-pick, antagonist series (AID 743412); format: functional, cell-based
Bcl-2-related protein A1 [10] = biological target: T1, Bcl-2-related protein A1 (Mus musculus, UniProt Q07440); assay: Bfl-1 binding inhibitors, SAR follow-up, biochemical, fluorescence polarization (AID 1070)
T1 sequence (Q07440 whole entry): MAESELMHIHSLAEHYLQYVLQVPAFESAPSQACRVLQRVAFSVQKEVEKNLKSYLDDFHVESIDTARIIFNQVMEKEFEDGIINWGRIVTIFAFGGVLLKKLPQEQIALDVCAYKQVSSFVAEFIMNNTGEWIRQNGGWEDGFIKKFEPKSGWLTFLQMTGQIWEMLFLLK

Bcl-2-related protein A1 [11] = biological target: T1, Bcl-2-related protein A1; assay: Bfl-1 inhibitors blocking BH3 peptide binding, confirmation, biochemical, TR-FRET, mouse Bfl-1 (AID 621);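 further: TR-FRET binding of GST-Bfl-1 to FITC-labelled Bid peptide via terbium antibody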
[12] = biological target: T2, Microphthalmia-associated transcription factor (Homo sapiens, UniProt O75030); assay: TRPM1 promoter luciferase signal decrease, dose response, MITF inhibitor project, cell-based, SK-MEL-5, cherry-picked, set 3 (AID 493073); format: functional
T2 sequence (O75030 whole entry): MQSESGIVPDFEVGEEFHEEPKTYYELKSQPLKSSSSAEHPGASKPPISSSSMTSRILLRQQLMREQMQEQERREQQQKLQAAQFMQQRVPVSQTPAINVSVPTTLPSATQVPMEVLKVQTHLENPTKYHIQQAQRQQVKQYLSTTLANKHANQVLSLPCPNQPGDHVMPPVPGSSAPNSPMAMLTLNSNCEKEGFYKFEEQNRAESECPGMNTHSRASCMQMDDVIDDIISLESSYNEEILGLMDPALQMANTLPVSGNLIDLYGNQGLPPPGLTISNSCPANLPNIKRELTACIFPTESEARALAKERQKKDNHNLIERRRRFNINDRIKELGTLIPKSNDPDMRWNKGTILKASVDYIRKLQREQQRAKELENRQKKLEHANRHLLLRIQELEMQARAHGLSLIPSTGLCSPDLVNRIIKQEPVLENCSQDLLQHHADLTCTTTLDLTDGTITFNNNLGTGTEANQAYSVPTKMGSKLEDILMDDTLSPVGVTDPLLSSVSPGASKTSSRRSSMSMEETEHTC

Cytochrome P450 3A4 = Cytochrome P450 3A4 (Homo sapiens, UniProt P08684); conditions: Potency;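 further: confirmatory qHTS run detecting inhibitors and substrates of CYP3A4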
Sequence of Cytochrome P450 3A4 (P08684 whole entry): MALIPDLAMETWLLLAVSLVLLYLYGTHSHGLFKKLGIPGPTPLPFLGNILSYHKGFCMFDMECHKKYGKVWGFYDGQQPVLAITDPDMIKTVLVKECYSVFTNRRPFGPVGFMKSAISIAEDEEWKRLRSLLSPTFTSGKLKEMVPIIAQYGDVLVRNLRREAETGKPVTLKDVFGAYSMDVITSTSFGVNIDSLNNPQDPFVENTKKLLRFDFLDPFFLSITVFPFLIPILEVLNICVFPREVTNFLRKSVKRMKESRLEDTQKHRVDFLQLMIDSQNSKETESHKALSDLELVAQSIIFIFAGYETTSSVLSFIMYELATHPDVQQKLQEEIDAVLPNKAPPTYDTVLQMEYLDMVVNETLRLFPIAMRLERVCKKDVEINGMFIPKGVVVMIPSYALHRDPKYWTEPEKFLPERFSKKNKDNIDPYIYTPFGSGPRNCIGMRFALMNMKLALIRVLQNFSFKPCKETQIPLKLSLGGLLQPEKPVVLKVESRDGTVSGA

[13] = HepG2 cell cytotoxicity, dose response, cytotoxicity control, ATP luminescence, cherry-pick, activator set 2 (AID 1053143); format: functional, cell-based
Paired box protein Pax-8 = Paired box protein Pax-8 (Homo sapiens, UniProt Q06710); assay: inhibitors of PAX8-driven TPO luciferase reporter, dose response, RMG-I cells, cherry-pick (AID 687027); format: functional, cell-based;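 further: luciferase reporter driven by Pax8 target thyroperoxidase promoter measured by SteadyGlo luminescence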
Sequence of Paired box protein Pax-8 (Q06710 whole entry): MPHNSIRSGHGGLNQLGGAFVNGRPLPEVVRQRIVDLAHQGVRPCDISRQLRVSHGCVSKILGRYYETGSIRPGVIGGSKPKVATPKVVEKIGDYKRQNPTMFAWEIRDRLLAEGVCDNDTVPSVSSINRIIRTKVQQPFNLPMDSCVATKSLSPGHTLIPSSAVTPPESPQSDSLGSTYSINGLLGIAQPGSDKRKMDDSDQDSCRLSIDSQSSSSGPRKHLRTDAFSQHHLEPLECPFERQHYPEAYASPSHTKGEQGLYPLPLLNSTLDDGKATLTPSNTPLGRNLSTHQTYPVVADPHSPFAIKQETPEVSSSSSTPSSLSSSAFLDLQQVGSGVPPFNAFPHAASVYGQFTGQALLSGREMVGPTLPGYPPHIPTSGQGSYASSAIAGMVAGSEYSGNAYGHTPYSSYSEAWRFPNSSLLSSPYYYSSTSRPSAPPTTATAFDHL

Troponin, cardiac muscle = Troponin, cardiac muscle (Homo sapiens, UniProt P19429+P45379+P63316); assay: Fluorescence-based biochemical high throughput dose response assay for activators of the calcium sensitivity of cardiac Regulated Thin Filaments (RTF). [Related pubchem assays (depositor defined):AID493008, AID493018, AID504382, AID504383]; format: protein-complex assay
[14] = biological target: Peroxisome proliferator-activated receptor gamma/Nuclear receptor coactivator 3 (Homo sapiens, UniProt P37231); format: functional;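 further: agonist potency for raising coactivator recruitment to the receptor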
Sequence of Peroxisome proliferator-activated receptor gamma/Nuclear receptor coactivator 3 (P37231 whole entry): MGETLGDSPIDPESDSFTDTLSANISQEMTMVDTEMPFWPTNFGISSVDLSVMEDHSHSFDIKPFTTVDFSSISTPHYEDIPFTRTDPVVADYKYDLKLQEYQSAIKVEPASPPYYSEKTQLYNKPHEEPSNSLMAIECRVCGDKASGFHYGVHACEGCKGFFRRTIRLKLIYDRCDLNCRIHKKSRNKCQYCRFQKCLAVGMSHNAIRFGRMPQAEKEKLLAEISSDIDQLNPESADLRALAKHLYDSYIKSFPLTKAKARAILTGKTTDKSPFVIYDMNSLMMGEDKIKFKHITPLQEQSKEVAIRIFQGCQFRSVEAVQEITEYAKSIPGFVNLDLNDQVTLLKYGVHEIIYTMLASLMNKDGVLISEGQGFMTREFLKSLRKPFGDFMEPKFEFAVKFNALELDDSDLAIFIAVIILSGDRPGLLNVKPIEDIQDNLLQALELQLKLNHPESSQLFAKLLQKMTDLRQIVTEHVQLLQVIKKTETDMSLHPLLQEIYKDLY
Sequence of Peroxisome proliferator-activated receptor gamma/Nuclear receptor coactivator 3 (Q9Y6Q9 whole entry, further chain): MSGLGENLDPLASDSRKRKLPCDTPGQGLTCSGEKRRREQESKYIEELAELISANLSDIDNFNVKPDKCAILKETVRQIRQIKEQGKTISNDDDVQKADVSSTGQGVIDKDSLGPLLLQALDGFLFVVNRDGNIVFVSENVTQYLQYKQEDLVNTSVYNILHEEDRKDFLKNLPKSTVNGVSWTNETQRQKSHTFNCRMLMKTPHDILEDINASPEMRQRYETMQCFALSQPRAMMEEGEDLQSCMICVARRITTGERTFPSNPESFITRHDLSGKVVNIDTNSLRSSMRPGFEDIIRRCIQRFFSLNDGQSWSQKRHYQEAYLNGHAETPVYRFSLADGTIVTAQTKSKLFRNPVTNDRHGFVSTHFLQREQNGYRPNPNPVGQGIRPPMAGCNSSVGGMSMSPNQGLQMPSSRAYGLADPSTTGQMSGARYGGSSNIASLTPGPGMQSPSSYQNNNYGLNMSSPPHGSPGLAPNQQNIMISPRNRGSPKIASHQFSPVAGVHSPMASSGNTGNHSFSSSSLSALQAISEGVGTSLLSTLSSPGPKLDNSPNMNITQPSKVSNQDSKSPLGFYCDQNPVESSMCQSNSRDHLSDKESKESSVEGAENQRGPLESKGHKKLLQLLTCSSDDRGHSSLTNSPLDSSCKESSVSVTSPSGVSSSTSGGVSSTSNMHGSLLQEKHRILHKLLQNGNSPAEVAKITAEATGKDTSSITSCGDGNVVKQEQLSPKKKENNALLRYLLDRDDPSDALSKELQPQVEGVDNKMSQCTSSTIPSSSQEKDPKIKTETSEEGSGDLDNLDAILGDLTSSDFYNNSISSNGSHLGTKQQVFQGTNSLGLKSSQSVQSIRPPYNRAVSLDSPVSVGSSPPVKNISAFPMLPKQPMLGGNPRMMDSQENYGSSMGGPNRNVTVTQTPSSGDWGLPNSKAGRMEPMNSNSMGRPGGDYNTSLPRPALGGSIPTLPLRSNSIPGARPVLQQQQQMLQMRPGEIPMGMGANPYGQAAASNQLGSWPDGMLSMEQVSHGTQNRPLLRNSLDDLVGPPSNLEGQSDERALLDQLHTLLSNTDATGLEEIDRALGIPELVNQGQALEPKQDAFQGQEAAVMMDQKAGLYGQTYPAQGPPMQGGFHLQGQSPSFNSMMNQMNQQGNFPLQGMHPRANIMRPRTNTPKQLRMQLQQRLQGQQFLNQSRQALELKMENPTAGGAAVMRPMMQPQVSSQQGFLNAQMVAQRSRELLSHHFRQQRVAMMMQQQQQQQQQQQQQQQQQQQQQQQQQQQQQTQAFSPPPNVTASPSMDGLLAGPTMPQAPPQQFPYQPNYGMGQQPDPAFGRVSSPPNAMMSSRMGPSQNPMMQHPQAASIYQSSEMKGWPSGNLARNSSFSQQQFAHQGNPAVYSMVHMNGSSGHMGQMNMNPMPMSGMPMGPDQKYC

[15] = biological target: Peroxisome proliferator-activated receptor gamma/Nuclear receptor coactivator 1 (Homo sapiens, UniProt P37231); format: functional;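 further: agonist potency as compounds enhance coactivator SRC-1 recruitment to PPARgamma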
[16] = biological target: Peroxisome proliferator-activated receptor gamma/Nuclear receptor coactivator 2 (Homo sapiens, UniProt P37231); format: functional;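 further: agonist potency for raising coactivator recruitment to the receptor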
Protein Tat = biological target: T3, Protein Tat (Human immunodeficiency virus type 1 group M subtype B (isolate HXB2)(HIV-1), UniProt P04608); format: functional;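 further: tat binding to TAR RNA read out by fluorescence polarization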
T3 sequence (P04608 whole entry): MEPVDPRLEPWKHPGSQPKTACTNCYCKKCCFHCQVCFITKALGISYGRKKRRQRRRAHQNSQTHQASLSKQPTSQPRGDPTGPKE

[17] = biological target: T4, E3 ubiquitin-protein ligase XIAP (Homo sapiens, UniProt P98170); assay: XIAP antagonists, biochemical, IAP family, fluorescence polarization (AID 1018); format: functional
T4 sequence (P98170 whole entry): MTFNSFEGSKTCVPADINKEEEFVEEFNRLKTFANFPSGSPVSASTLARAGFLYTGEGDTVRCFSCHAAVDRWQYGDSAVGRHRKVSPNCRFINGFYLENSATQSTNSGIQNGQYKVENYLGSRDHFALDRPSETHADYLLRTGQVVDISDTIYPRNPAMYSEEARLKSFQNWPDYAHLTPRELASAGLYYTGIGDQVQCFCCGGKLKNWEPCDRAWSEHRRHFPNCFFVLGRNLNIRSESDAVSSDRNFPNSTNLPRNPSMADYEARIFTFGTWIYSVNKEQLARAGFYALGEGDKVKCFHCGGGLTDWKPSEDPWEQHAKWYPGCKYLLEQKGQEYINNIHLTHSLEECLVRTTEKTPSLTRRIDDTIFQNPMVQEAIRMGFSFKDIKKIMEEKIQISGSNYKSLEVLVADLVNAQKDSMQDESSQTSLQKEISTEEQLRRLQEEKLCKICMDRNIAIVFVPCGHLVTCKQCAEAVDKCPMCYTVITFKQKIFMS

[18] = biological target: T5, Heat shock factor protein 1 (Mus musculus, UniProt P38532); assay: inhibition of MG132-induced HSE-luciferase signal, confirmation, cell-based, NIH3T3, luminescence, dose retest (AID 2382); format: functional;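 further: NIH3T3 fibroblasts with HSF1-driven luciferase reporter stressed by proteasome inhibitor MG132; luminescence from HSF1-driven luciferase expression after 8 hours of MG132 stress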
T5 sequence (P38532 whole entry): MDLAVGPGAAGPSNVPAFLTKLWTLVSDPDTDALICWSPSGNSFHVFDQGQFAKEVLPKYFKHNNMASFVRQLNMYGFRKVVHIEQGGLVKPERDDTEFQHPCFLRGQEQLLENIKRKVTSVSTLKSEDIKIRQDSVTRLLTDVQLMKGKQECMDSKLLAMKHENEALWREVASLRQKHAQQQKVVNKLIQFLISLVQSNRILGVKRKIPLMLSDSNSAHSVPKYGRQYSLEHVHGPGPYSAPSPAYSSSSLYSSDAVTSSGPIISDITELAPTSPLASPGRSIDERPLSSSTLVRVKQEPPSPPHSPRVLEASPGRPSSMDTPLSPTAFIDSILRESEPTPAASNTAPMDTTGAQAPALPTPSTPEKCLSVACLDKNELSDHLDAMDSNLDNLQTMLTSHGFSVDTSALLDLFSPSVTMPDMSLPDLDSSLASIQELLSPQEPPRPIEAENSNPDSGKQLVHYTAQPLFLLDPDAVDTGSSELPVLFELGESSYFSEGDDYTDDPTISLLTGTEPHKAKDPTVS

[19] = biological target: T4, E3 ubiquitin-protein ligase XIAP; assay: Counter Screen using XIAP-Bir3 for Chemical Antagonists of Bir1/2 domains of IAP-family anti-apoptotic proteins. [Related pubchem assays (depositor defined):AID1018, AID1449, AID1514, AID1638, AID1749, AID1750, AID488957, AID488963]
[20] = biological target: Glyceraldehyde-3-phosphate dehydrogenase (Homo sapiens, UniProt P04406)
Sequence of Glyceraldehyde-3-phosphate dehydrogenase (P04406 whole entry): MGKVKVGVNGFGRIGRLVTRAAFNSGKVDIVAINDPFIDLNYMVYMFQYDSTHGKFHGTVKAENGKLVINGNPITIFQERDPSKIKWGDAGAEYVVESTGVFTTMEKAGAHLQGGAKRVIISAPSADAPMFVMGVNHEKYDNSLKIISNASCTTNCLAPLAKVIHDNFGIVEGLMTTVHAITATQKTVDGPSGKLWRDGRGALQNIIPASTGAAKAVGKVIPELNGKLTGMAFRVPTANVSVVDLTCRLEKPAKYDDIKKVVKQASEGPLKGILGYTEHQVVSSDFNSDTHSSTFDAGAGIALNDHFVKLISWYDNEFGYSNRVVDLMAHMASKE

SMILES: CN(C)C(=O)Oc1ccc(OCc2nc3ccccc3[nH]2)cc1
EC50 [1]: 8.55 µM (inconclusive)
EC50 (BJ [2]): 22.3 µM (active)
AC50 [3]: 6.62 µM (active)
AC50 [4]: 6.14 µM (active)
AC50 [5]: 13.8 µM (active)
EC50 (BJ [6]): 8.38 µM (inconclusive)
EC50 (BJ [7]): 11.2 µM (inconclusive)
AC50 [8]: 10.2 µM (active)
AC50 [9]: 11.8 µM (active)

IC50 (Bcl-2-related protein A1 [10]): > 100 µM (not active)
IC50 (Bcl-2-related protein A1 [11]): > 100 µM (not active)
SMILES: Clc1ccc(-n2nnc(-c3cccnc3Cl)n2)cc1Cl

SMILES: COc1cc(/C=C/C(=O)N2CCC=CC2=O)cc(OC)c1OC [PIPLARTINE]
AC50 [12]: 7.4 µM (active)
AC50 (Cytochrome P450 3A4): 0.0501 µM (inconclusive)
AC50 [13]: 17.4 µM (active)
AC50 (Paired box protein Pax-8): 2.69 µM (active)

EC50 (Troponin, cardiac muscle): > 71.5 µM (inactive)
SMILES: O=C(CSc1nc2cc(Br)c[nH]c-2n1)c1cccc([N+](=O)[O-])c1

EC50 [14]: 11.4 µM (not active)
EC50 [15]: 8.1 µM (active)
EC50 [16]: 12.2 µM (not active)
SMILES: CCOC(=O)c1s/c(=N\C(=O)c2ccc(OC)c(OC)c2)n(C)c1C

IC50 (Protein Tat): > 100 µM (active)
SMILES: COc1cc2c3c(c1OC)C1(C=CC(=O)C=C1)CC3N(C(=O)CCC(=O)O)CC2 (configuration not stated)

IC50 [17]: > 100 µM (not active)
EC50 [18]: > 195 µM (not active)
IC50 [19]: > 100 µM (inactive)
SMILES: N#CC1(C#N)COC23CCCCC2C1(C#N)C(=N)O3 (configuration not stated)

SMILES: Cc1cc(NC(=O)c2ccc(OCC3CCCO3)cc2)ccc1Br (configuration not stated)
AC50 [13]: 26 µM (active)

IC50 [17]: > 100 µM (not active)
IC50 [19]: > 100 µM (inactive)
SMILES: Cc1ccc(N(CC(=O)N/N=C/c2cccc(Br)c2)S(C)(=O)=O)cc1

EC50 (Troponin, cardiac muscle): > 71.6 µM (inactive)
SMILES: CN(Cc1ccccc1)C(=O)c1[nH]cnc1C(=O)NCc1ccccc1

SMILES: Cc1csc(NC(=O)c2sccc2C)n1
AC50 [13]: 26 µM (active)

SMILES: O=C1C(Cl)=C(Cl)C(=O)N1c1c(Cl)cccc1Cl
IC50 [20]: > 100 µM (not active)
IC50 (Bcl-2-related protein A1 [10]): > 100 µM (not active)
IC50 (Bcl-2-related protein A1 [11]): 30 µM (active)

AC50 (Cytochrome P450 3A4): 15.8 µM (inconclusive)
SMILES: NC(=O)CNCCC(c1ccccc1)c1ccccc1
